The values below come from ChEMBL document CHEMBL1136271, “Design and synthesis of potent, orally bioavailable dihydroquinazolinone inhibitors of p38 MAP kinase” (Bioorg Med Chem Lett, 2003).

Holding throughout (format): ADME, organism-based
The nature of data set [1]: Plasma clearance in rat. Particulars: read-out: Clp.
Data set [2] in a line: Volume distribution in rat. Particulars: in vivo.
Data set [3] is described as follows: Half-life in rat. Particulars: in vivo.
Data set [4] is described as follows: Oral bioavailability in rat. Conditions: in vivo.
The nature of data set [5]: Area under curve was determined in rat after PO administration. Particulars: in vivo. Details: concentration or dose not given beside the values.

Broadly, the Vd is a proportionality between amount in the body and measured concentration, not a real space. Usually half-life stands for the time in which the quantity being followed falls by half. Broadly, the bioavailability is the share of a dose that reaches the circulation, judged against a reference dose that is usually intravenous. By AUC is commonly meant the area under the concentration-time curve, a measure of exposure.

As for `O=C1NCc2c(-c3ccccc3Cl)cc(N3CCNCC3)cc2N1c1c(Cl)cccc1Cl`, in data set [1], the clearance was found to be 34.4 mL/min/kg. The Vd in data set [2] amounted to 4.3 L/kg. Besides, in data set [3], the half-life was 1.6 h. The compound also came in with a bioavailability in data set [4] of 22.7%. Further, the AUC in data set [5] turned out to be 0.22 µM·h.

Regarding `O=C1NCc2c(-c3ccc(F)cc3F)cc(C3CCNCC3)cc2N1c1c(Cl)cccc1Cl`, the clearance in data set [1] was found to be 58.6 mL/min/kg. In data set [2], this compound displayed a Vd of 13.6 L/kg. In data set [3], this compound had a half-life of 3.3 h. The compound also came in with a bioavailability in data set [4] of 4.3%. This compound also yielded an AUC in data set [5] of 0.02 µM·h.

Regarding `O=C1NCc2c(-c3ccc(F)cc3Cl)cc(C3CCN(CC4CC4)CC3)cc2N1c1c(Cl)cccc1Cl`, the clearance in data set [1] came out at 50.9 mL/min/kg. In data set [2], this compound registered a Vd of 6.3 L/kg. In data set [3], this compound gave a half-life of 1.9 h. The compound further showed a bioavailability in data set [4] of 22.6%. The compound also gave an AUC in data set [5] of 0.15 µM·h.

For the compound `O=C1NCc2c(-c3ccc(F)cc3Cl)cc(C3CCNCC3)cc2N1c1c(Cl)cccc1Cl`, in data set [1], the clearance came to 72.3 mL/min/kg. The compound also showed a Vd in data set [2] of 7.8 L/kg. Moreover, the half-life in data set [3] was 2 h. In data set [4], this compound gave a bioavailability of 0%.

For `CC(C)N1CCC(c2cc(-c3ccc(F)cc3Cl)c3c(c2)N(c2c(Cl)cccc2Cl)C(=O)NC3)CC1`, the clearance in data set [1] is 84.8 mL/min/kg. This compound also showed a Vd in data set [2] of 12.2 L/kg. The compound further had a half-life in data set [3] of 1.9 h. In data set [4], the bioavailability came to 16%. The compound also returned an exposure (AUC) in data set [5] of 0.06 µM·h.

As for `O=C1NCc2c(-c3ccc(F)cc3Cl)cc(C3CCN(C4CC4)CC3)cc2N1c1c(Cl)cccc1Cl`, in data set [1], the clearance worked out at 51.7 mL/min/kg. The compound further gave a Vd in data set [2] of 8.1 L/kg. This compound also showed a half-life in data set [3] of 2.5 h. For the same compound, the bioavailability in data set [4] was 59.3%. In data set [5], this compound yielded an AUC of 0.39 µM·h.

Turning to `O=C1NCc2c(-c3ccccc3Cl)cc(OC3CCNCC3)cc2N1c1c(Cl)cccc1Cl`, the clearance in data set [1] was found to be 116 mL/min/kg. For the same compound, the distribution volume (Vd) in data set [2] was determined as 21 L/kg. The same compound gave a half-life in data set [3] of 3 h. For the same compound, the bioavailability in data set [4] was 6.3%. Also, the AUC in data set [5] stood at 0.02 µM·h.

With `CC(C)(C)N1CCC(c2cc(-c3ccc(F)cc3Cl)c3c(c2)N(c2c(Cl)cccc2Cl)C(=O)NC3)CC1`, the clearance in data set [1] amounted to 35.2 mL/min/kg. This compound showed a Vd in data set [2] of 6 L/kg. In data set [3], this compound showed a half-life of 2.2 h. In addition, in data set [4], the bioavailability worked out at 67.7%. For the same compound, the AUC in data set [5] stood at 0.58 µM·h.

On to `CCN1CCC(c2cc(-c3ccc(F)cc3Cl)c3c(c2)N(c2c(Cl)cccc2Cl)C(=O)NC3)CC1`, for which the clearance in data set [1] turned out to be 56.3 mL/min/kg. The same compound yielded a Vd in data set [2] of 7.5 L/kg. The compound also had a half-life in data set [3] of 2.2 h. For the same compound, the bioavailability in data set [4] is 20%. This compound displayed an AUC in data set [5] of 0.11 µM·h.

Consider `O=C1NCc2c(-c3ccc(F)cc3Cl)cc(CN3CCNCC3)cc2N1c1c(Cl)cccc1Cl`, for which the clearance in data set [1] turned out to be 140 mL/min/kg. Moreover, the Vd in data set [2] came to 18.6 L/kg. This compound showed a half-life in data set [3] of 2.8 h. Also, in data set [4], the bioavailability stood at 15.7%. The compound further returned an AUC in data set [5] of 0.04 µM·h.

Consider `O=C1NCc2c(-c3ccc(F)cc3Cl)cc(C3CCN(CC4CCC4)CC3)cc2N1c1c(Cl)cccc1Cl`, for which the clearance in data set [1] turned out to be 24.2 mL/min/kg. In data set [2], this compound showed a Vd of 2.5 L/kg. In data set [3], this compound showed a half-life of 1.6 h. The bioavailability in data set [4] worked out at 11.6%. In addition, the area under the curve (AUC) in data set [5] amounted to 0.14 µM·h.

Regarding `O=C(c1cc(-c2ccc(F)cc2F)c2c(c1)N(c1c(Cl)cccc1Cl)C(=O)NC2)N1CCNCC1`, the clearance in data set [1] came out at 94.7 mL/min/kg. The compound further gave a Vd in data set [2] of 12.8 L/kg. For the same compound, the half-life in data set [3] was 2.3 h. The same compound returned a bioavailability in data set [4] of 1.5%.

For `CC(C1CC1)N1CCC(c2cc(-c3ccc(F)cc3Cl)c3c(c2)N(c2c(Cl)cccc2Cl)C(=O)NC3)CC1` (configuration not stated), in data set [1], the clearance was 31.1 mL/min/kg. Also, in data set [2], the Vd was 4.7 L/kg. The compound further had a half-life in data set [3] of 2 h. In data set [4], this compound returned a bioavailability of 38%. The AUC in data set [5] worked out at 0.36 µM·h.

In the case of `CN1CCC(c2cc(-c3ccc(F)cc3Cl)c3c(c2)N(c2c(Cl)cccc2Cl)C(=O)NC3)CC1`, the clearance in data set [1] was determined as 49.8 mL/min/kg. Also, the Vd in data set [2] came to 5.3 L/kg. Also, the half-life in data set [3] is 1.5 h. In addition, the bioavailability in data set [4] stood at 9.2%. In data set [5], this compound had an AUC of 0.06 µM·h.

Regarding `O=C1NCc2c(-c3ccccc3Cl)cc(C3CCNCC3)cc2N1c1c(Cl)cccc1Cl`, the clearance in data set [1] was found to be 181 mL/min/kg. This compound also yielded a Vd in data set [2] of 21.4 L/kg. The compound further gave a half-life in data set [3] of 2.5 h. The compound also yielded a bioavailability in data set [4] of 0%.

Consider `O=C1NCc2c(-c3ccc(F)cc3Cl)cc(C3CCN(C4CCC4)CC3)cc2N1c1c(Cl)cccc1Cl`, for which the clearance in data set [1] came out at 53.7 mL/min/kg. In data set [2], this compound registered a Vd of 6.6 L/kg. The compound further had a half-life in data set [3] of 1.7 h. Also, the bioavailability in data set [4] worked out at 24.7%. For the same compound, the AUC in data set [5] was determined as 0.14 µM·h.
